Results reported in the supplement of paper PMC12533247.

How the values were obtained:
[1] = tested on: HSV-1 K26-GFP infected primary human skin cells; test: % change of HSV-1 GFP signal vs untreated infected cells; higher = less antiviral inhibition; settings: cell type: primary dermal fibroblasts, time (h post infection): 48
Procedure: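 2D primary donor-derived dermal fibroblasts infected with GFP-HSV-1 K26 at MOI 1, treated 1 h later with compound dilutions and read at 48 hpi on IncuCyte. GFP integrated intensity is normalised to mock-infected and untreated infected wells (% change; -100 = full inhibition).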

[2] = tested on: HSV-1 K26-GFP infected primary human skin cells; test: as above
Procedure: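 2D primary donor-derived keratinocytes (read at 20 hpi) and donor-matched dermal fibroblasts (read at 48 hpi) infected with GFP-HSV-1 K26 at MOI 1 and treated 1 h later with compound dilutions. IncuCyte GFP integrated intensity is normalised by subtracting mock-infected wells and dividing by untreated infected wells, shown as % change (-100 = full inhibition).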

Nc1nc2c(ncn2COCCO)c(=O)[nH]1 [Acyclovir]
% change of HSV-1 GFP signal [%], [1]
Settings | 0.01 µM | 0.03 µM | 0.091 µM | 0.274 µM | 0.823 µM | 2.469 µM | 7.407 µM | 22.222 µM | 66.667 µM | 200 µM
donor: 3 | 11.2 | -4.39 | -24.2 | -53.8 | -81.8 | -96 | -98.87 | -99.69 | -99.875 | -99.88
donor: 4 | -5.12 | -10.6 | -29.8 | -54.4 | -78.2 | -94 | -98.8 | -99.862 | -99.93 | -99.998

% change of HSV-1 GFP signal [%], [2]
Settings | 0.01 µM | 0.03 µM | 0.091 µM | 0.274 µM | 0.823 µM | 2.469 µM | 7.407 µM | 22.222 µM | 66.667 µM | 200 µM
cell type: primary dermal fibroblasts, donor: 5, time (h post infection): 48 | 8.25 | 5.48 | -8.89 | -35.4 | -64.4 | -91.6 | -98.36 | -99.642 | -99.73 | -99.952
cell type: primary keratinocytes, donor: 3, time (h post infection): 20 | 4.06 | 2.08 | 5.2 | 11.3 | 10.1 | 10.8 | 5.3 | -13.4 | -42.3 | -69.1
cell type: primary keratinocytes, donor: 4, time (h post infection): 20 | 3.4 | -0.143 | 2.05 | 3.28 | -0.371 | -2.35 | -4.48 | -27.5 | -53.6 | -80.5
cell type: primary keratinocytes, donor: 5, time (h post infection): 20 | 3.43 | 1.77 | 4.64 | 3.64 | 4.14 | 5.76 | -4.49 | -17.7 | -45.6 | -75.1
